Data as given in US8686050B2, “Diglycidic ether derivative therapeutics and methods for their use” (British Columbia Cancer Agency Branch, priority 2008, dated 2014).
Entries after “also recorded” stand apart in the source; their conditions may differ. Structures can show the parent of a compound that is named as a salt.

Legend:
Format in all cases: cell-based
[1] = target: T1, VP16-ARTAD and Gal4-ARLBD (Homo sapiens, UniProt P10275); test: N/C interaction, mammalian two-hybrid in CV1 cells; conditions: R1881, 24 hr, 185-9-2 10 μg/ml, bicalutamide 10 μM
T1 construct: amino acids 1-565 of the AR NTD fused to VP16 at the N-terminus; the LBD of the AR (amino acids 628-919; Gal4-ARLBD; the C terminus); expressed in transfected cells; host or cells: CV1
T1 sequence (P10275 1-565): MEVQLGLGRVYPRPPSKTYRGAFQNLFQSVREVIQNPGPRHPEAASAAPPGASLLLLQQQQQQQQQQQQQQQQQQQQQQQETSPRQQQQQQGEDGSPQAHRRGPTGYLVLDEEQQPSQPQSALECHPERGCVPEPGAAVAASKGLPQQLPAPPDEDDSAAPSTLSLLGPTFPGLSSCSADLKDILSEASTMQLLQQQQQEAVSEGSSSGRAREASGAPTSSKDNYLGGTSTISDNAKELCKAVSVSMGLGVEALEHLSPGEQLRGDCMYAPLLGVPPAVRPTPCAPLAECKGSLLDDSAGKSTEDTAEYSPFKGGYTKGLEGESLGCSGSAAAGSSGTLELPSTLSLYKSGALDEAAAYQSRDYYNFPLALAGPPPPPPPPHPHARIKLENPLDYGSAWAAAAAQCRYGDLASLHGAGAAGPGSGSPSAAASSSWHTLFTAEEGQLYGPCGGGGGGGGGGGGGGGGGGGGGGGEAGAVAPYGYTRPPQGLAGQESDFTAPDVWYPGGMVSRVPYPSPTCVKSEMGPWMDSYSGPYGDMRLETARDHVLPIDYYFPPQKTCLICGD

AR = target: T2, AR (Homo sapiens, UniProt P10275, T878A); test: Western blot of AR protein in LNCaP whole cell lysates; parameters: LNCaP cells express endogenous AR and secrete prostate-specific antigen (PSA); endogenous in cells; host or cells: LNCaP
T2 sequence (P10275 1-920 T878A): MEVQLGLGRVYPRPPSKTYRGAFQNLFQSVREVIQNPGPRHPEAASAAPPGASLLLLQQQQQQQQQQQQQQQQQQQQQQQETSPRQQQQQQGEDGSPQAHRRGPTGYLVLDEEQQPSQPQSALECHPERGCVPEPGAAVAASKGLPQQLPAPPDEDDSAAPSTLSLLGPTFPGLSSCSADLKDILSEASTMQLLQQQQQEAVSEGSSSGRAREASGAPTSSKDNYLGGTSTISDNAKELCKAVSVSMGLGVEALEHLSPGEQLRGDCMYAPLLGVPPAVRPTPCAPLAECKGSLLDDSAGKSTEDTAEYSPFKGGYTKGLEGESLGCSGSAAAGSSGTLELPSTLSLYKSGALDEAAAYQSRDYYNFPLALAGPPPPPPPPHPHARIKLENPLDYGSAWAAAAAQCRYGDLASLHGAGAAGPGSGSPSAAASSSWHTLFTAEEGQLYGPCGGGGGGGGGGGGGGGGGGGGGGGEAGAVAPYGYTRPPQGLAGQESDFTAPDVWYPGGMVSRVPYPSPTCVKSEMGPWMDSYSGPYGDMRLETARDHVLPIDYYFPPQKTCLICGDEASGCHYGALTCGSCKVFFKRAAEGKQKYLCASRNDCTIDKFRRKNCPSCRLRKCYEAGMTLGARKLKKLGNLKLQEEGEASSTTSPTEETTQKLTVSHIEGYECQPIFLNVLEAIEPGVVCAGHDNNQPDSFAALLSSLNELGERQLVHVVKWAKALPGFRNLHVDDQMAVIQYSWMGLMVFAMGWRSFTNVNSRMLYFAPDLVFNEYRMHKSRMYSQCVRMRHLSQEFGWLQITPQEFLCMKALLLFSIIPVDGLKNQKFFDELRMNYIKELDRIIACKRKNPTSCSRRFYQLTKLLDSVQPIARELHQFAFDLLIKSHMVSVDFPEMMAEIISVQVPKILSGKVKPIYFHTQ

[2] = target: T3, glucocorticoid receptor (GR) (Homo sapiens, UniProt P04150); test: GRE-luciferase reporter, steroid receptor specificity; conditions: LNCaP cells transfected with GR, steroid 10 nM; 185-9-2 5 μg/ml
T3 construct: Cells were co-transfected with expression plasmids for full-length hGR, PRβ and the relative reporter; expressed in transfected cells; host or cells: LNCaP
T3 sequence (P04150 1-777): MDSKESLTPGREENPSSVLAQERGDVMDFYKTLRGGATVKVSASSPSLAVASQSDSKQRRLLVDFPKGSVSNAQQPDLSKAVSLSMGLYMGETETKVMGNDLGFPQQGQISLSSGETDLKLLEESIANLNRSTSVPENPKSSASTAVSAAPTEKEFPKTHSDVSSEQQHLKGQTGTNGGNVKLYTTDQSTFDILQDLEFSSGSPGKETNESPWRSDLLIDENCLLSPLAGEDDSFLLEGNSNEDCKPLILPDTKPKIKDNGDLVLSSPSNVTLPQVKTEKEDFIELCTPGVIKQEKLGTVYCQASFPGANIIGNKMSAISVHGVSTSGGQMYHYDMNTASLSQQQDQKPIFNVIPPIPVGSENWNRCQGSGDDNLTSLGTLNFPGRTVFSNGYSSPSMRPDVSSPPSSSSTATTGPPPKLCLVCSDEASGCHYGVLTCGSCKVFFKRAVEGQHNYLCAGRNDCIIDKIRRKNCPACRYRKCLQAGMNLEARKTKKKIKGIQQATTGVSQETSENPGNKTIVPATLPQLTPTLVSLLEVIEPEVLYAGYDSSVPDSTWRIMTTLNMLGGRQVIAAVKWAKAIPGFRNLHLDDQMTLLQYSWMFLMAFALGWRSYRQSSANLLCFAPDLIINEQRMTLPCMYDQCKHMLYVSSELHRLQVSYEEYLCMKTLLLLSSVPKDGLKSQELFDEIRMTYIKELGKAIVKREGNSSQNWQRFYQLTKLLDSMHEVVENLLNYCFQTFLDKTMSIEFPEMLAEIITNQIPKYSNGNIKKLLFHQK
Protocol: Sequence similarities of amino acids in the AR with related human steroid receptors PR and glucocorticoid receptor (GR) are significant in some domains such as the DBD. The AR NTD shares less than 15% homology with the PR and GR, but these receptors interact with some of the same proteins (eg., SRC-1 and CBP). […] Cells were co-transfected with expression plasmids for full-length hGR, PRβ and the relative reporter (i.e., pGR-Luc or PRE-E1b-Luc reporters). Cells were then treated with ethanol vehicle, dexamethasone (GR), 4-pregnene-3,20 dione (progesterone) (PR) followed by measurement of luciferase activity. […] Some antiandrogens currently used in the clinic have progestational and glucocorticoidal activities. In adult males, the role of the PR activity is unclear.

SMILES: CC(C)(c1ccc(OCC(O)CO)cc1)c1ccc(OCC(O)CCl)cc1 (stereo not shown) [185-9-2, BADGE.HCL.H2O]
- androgen-stimulated N/C interaction [1]: inhibit androgen-stimulated N/C interaction
- levels of AR protein in whole cell extracts (AR; LNCaP cells treated 3 or 16 hours): does NOT decrease levels of AR protein; also recorded: not decreased
- levels of AR protein, long term incubation (AR; LNCaP cells, 48 hrs, presence or absence of DHT): did not reduce levels of AR protein
- GRE-luciferase activity in response to ligand [2]: did NOT inhibit; also recorded: does NOT inhibit
